Measurements reported in article PMC12362111, “Cu/Zn-superoxide dismutase naturally fused with a β-propeller lactonase in Deinococcus radiodurans” (The Journal of Biological Chemistry, 2025).

Legend:
DrSOD^β-pro = target: T1, DrSOD^β-pro (Deinococcus radiodurans, UniProt Q9RYV4); assay: pH-indicator (p-nitrophenol, […] nm) lactonase assay; format: biochemical; details: pH 7.0, 20 mM CaCl2; 2 mM substrate
T1 construct: gene DR_A0202; C-terminal beta-propeller domain (Leu185-Phe462), N-terminal 6xHis removed with HRV3C, E. coli BL21(DE3), monomer and dimer

[1] = target: the molecule itself; assay: SEC-MALS; 25 μM protein loaded on a gel filtration column (LW-803, SHODEX); MN buffer (50 mM MOPS, 100 mM NaCl, pH 7.0) for the holo forms, MN buffer with 5 mM EDTA for the metal-free apo state; monomer against dimer

Molecule: O=C1Cc2ccccc2O1 [2-coumaranone]
- pH-indicator (p-nitrophenol, 405 nm) lactonase assay (DrSOD^β-pro): lactonase activity of DrSOD toward 2-coumaranone was attributed to DrSOD^β-pro but not DrSOD^SOD

B1: six-bladed β-propeller domain of DrSOD (DrSOD^β-pro) (domain or fragment, Deinococcus radiodurans, UniProt Q9RYV4 185-462, looked up)
chain: LSVRDYALPGPVDHPEGVAYDAKKGLIYTGSAQNGTIYAINAQSGAVTKFQEGGAYGRQVALGLKVDPQGRLWIAGGAQGTVSILTPDGMTLAVLETPKSPRPYINDLVLAPDGNFYVTDSSRPVIFRVDKALKLTAWLDLAGTPIKYGPGVNLNGIAATPDGKYLLAVQLNTGELWRIDLKTKAVKKVMDGLVNGDGLLLDGRTLYVARNKDQVVAKVSLSADYGSGQLVAQEPLNGLRFPATLAKVGNDLVVTQAQLDRIGGTPETPFKLTRFAKF
notes: β-propeller (SGL) domain of DrSOD (DRA0202), Deinococcus radiodurans, UniProt Q9RYV4, residues Leu185-Phe462; Eluted as a mixture of monomer and dimer; source: E. coli BL21(DE3), purified (cOmplete His-Tag column, HRV3C, gel filtration); not shown: His6, N-terminal, cleaved
- stoichiometry N [1]: 2
